Earlier results on two compounds are cited in patent US8124767B2, “Luminescence biotin-transition metal complex conjugate, and method of amplifying signal using the same” (Samsung Electronics Co., Ltd., priority 2008, dated 2012).

Structures are written as SMILES. Read-outs that look alike come from different tables or passages of the source.

In one data set the target is T1, avidin (Gallus gallus, UniProt P02701).
T1 construct: purchased Aldrich
The following applies: HABA, comparison value; read-out: Kd (binding to avidin); cited from earlier work.

For data set [1] the following is noted: excitation 310 nm, 0.02 mM 2-MeTHF, cited from earlier work.

T1 sequence (P02701 25-152): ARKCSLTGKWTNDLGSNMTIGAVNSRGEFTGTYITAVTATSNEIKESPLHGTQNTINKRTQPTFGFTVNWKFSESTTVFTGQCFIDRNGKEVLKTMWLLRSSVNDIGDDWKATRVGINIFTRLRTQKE

In general, Kd refers to the concentration at which binding is half-saturated. As to `O=C(O)c1ccccc1N=Nc1ccc(O)cc1` [HABA, 4,4′-hydroxyazobenzene-2-carboxylic acid], the Kd at avidin is 6 µM.

With `Cc1cc(-n2c3ccccc3c3ccccc32)cc(-n2c3ccccc3c3ccccc32)c1` [Probe 5mCP], in data set [1] (77 K), the “T360 nm, lifetime of the donor peak” value is given as 8.2 ns and the “T411 nm, lifetime of the donor peak” value is 7.0 s. In data set [1] (298 K), the “T360 nm, lifetime of the donor peak” value was 6.6 ns.
